Test results reported in the NIST ThermoML archive (doi:10.1016/j.fluid.2005.10.023).
± gives the expanded uncertainty stated by the source.

Assay: xn = mol fraction of the nth substance listed
Conditions: Gas, Other PVT measurement

Clc1ccccc1 [chlorobenzene] + O=C=O
mass density [kg/m3]
Conditions	x1 = 0.024	x1 = 0.0293	x1 = 0.0352	x1 = 0.04	x1 = 0.0482	x1 = 0.204
323.15 K	471 ± 20	507 ± 20	–	–	–	437 ± 20
328.15 K	441 ± 20	481 ± 20	516 ± 20	534 ± 20	–	406 ± 20
333.15 K	417 ± 20	458 ± 20	493 ± 20	516 ± 20	556 ± 20	386 ± 20

CCCCCC [hexane] + O=C=O
mass density [kg/m3]
Conditions	x1 = 0.0373	x1 = 0.0471	x1 = 0.052	x1 = 0.0618
323.15 K	355 ± 21	451 ± 20	477 ± 20	–
328.15 K	294 ± 21	396 ± 20	423 ± 20	436 ± 20
333.15 K	249 ± 20	343 ± 20	378 ± 20	392 ± 20

C=Cc1ccccc1 [styrene] + O=C=O
mass density [kg/m3]
Conditions	x1 = 0.0182	x1 = 0.0256	x1 = 0.03	x1 = 0.0343	x1 = 0.0393	x1 = 0.0476
323.15 K	479 ± 20	494 ± 20	521 ± 20	–	–	–
328.15 K	450 ± 20	471 ± 20	499 ± 20	529 ± 20	547 ± 20	580 ± 20
333.15 K	430 ± 20	453 ± 20	479 ± 20	507 ± 20	527 ± 20	560 ± 20

CCCCCl [1-chlorobutane] + O=C=O
mass density [kg/m3]
Conditions	x1 = 0.0257	x1 = 0.03	x1 = 0.0363	x1 = 0.04	x1 = 0.0497
323.15 K	347 ± 20	386 ± 20	442 ± 20	468 ± 20	–
328.15 K	300 ± 20	343 ± 20	390 ± 20	407 ± 20	467 ± 20
333.15 K	–	286 ± 20	345 ± 20	380 ± 20	419 ± 20
